Test results from PubChem BioAssay AID1745844 (Carcinogenic Potency Database (CPDB), 2022).
Active and inactive are the calls of the source. How the calls were made is not given here.

System: rodent lifetime carcinogenesis bioassay, tumor incidence TD50
Assay: carcinogenic potency in animals, long-term in vivo studies, CPDB compilation (AID 1745844)

For `CC(C)CN(N=O)C(=N)N[N+](=O)[O-]`, the carcinogen call (rat, strain Wistar, males, in drinking water, site: stomach, glandular, lesion: one or several types, types not named, dosed 52 weeks, study length 78 weeks) was “negative (inactive)”.
With `CC[C@H]1OC(=O)C[C@@H](O)[C@H](C)[C@@H](O[C@@H]2O[C@H](C)[C@@H](O[C@H]3C[C@@](C)(O)[C@@H](O)[C@H](C)O3)[C@H](N(C)C)[C@H]2O)[C@@H](CC=O)C[C@@H](C)C(=O)/C=C/C(C)=C/C1CO[C@@H]1O[C@H](C)[C@@H](O)[C@@H](OC)[C@H]1OC` (some centres not stated) the carcinogen call (mouse, strain C57BL/6, females, in feed, site: liver, lesion: one or several types, types not named, dosed 52 weeks, study length 52 weeks) was “negative (inactive)”, the carcinogen call (mouse, strain C57BL/6, females, in feed, site: lung, lesion: one or several types, types not named, dosed 52 weeks, study length 52 weeks) was “negative (inactive)” and the carcinogen call (mouse, strain C57BL/6, males, in feed, site: liver, lesion: one or several types, types not named, dosed 52 weeks, study length 52 weeks) was “negative (inactive)”. The carcinogen call (mouse, strain C57BL/6, males, in feed, site: lung, lesion: one or several types, types not named, dosed 52 weeks, study length 52 weeks) was “negative (inactive)”.
Work on `CN(C)CCN(Cc1cccs1)c1ccccn1` yielded a TD50 (hamster, strain Syrian Golden, males, by gavage, site: liver, lesion: neoplastic nodule, dosed 58 weeks, study length 61 weeks) of 150 mg/kg/day, a TD50 (rat, strain Fischer 344, females, in feed, site: liver, lesion: hepatocellular carcinoma, dosed 110 weeks, study length 133 weeks) of 61.6 mg/kg/day and a TD50 (rat, strain Fischer 344, females, in feed, site: liver, lesion: neoplastic nodule, dosed 110 weeks, study length 133 weeks) of 11.8 mg/kg/day. The TD50 (rat, strain Fischer 344, females, in feed, site: liver, lesion: several types, types named in the paper, dosed 110 weeks, study length 133 weeks) was 7.65 mg/kg/day, the carcinogen call (rat, strain Fischer 344, males, in feed, site: liver, lesion: basophil adenoma, dosed 73 weeks, study length 73 weeks) was “positive” and the TD50 (rat, strain Fischer 344, males, in feed, site: liver, lesion: cholangiocarcinoma, dosed 110 weeks, study length 133 weeks) was 400 mg/kg/day. The carcinogen call (rat, strain Fischer 344, males, in feed, site: liver, lesion: eosinophilic adenoma, dosed 73 weeks, study length 73 weeks) was “positive”, the TD50 (rat, strain Fischer 344, males, in feed, site: liver, lesion: hepatocellular carcinoma, solid, dosed 73 weeks, study length 73 weeks) was 26.4 mg/kg/day and the TD50 (rat, strain Fischer 344, males, in feed, site: liver, lesion: hepatocellular carcinoma, trabecular, dosed 73 weeks, study length 73 weeks) was 26.4 mg/kg/day. The TD50 (rat, strain Fischer 344, males, in feed, site: liver, lesion: hepatocellular carcinoma, dosed 73 weeks, study length 73 weeks) was 14.7 mg/kg/day, the TD50 (rat, strain Fischer 344, males, in feed, site: liver, lesion: hepatocellular carcinoma, dosed 110 weeks, study length 133 weeks) was 77 mg/kg/day and the TD50 (rat, strain Fischer 344, males, in feed, site: liver, lesion: neoplastic nodule, dosed 110 weeks, study length 133 weeks) was 11.1 mg/kg/day. The TD50 (rat, strain Fischer 344, males, in feed, site: liver, lesion: several types, types named in the paper, dosed 110 weeks, study length 133 weeks) was 7.7 mg/kg/day.
`OCN(CO)c1nc(N(CO)CO)nc(N(CO)CO)n1` was tested, and the TD50 (rat, strain Sprague-Dawley, females, in feed, site: any site (literature study), lesion: several types, types named in the paper, dosed 44 weeks, study length 66 weeks) was 6.82 mg/kg/day, the TD50 (rat, strain Sprague-Dawley, females, in feed, site: kidney/pelvis, lesion: transitional-cell carcinoma, dosed 44 weeks, study length 66 weeks) was 33.6 mg/kg/day and the TD50 (rat, strain Sprague-Dawley, females, in feed, site: mammary gland, lesion: adenocarcinoma, dosed 44 weeks, study length 66 weeks) was 10.2 mg/kg/day. The TD50 (rat, strain Sprague-Dawley, females, in feed, site: mammary gland, lesion: several types, types named in the paper, dosed 44 weeks, study length 66 weeks) was 11.9 mg/kg/day.
